Measurements published in patent US20020062490A1, “Hypertension” (priority 2000, published 2002).
Where “and” joins values, the source holds several entries; their conditions need not be identical. Equal entries are not always repeated.

Experiments:
aortic VSM cells [1] = assay: MAPK (ERK1/2) activity after βAR stimulation in aorta VSM cells; type: cell-based, mice; conditions: 10^−5M isoproterenol, 5 minutes
Protocol: MAPK Activity: To study MAPK activity, cells were stimulated with isoproterenol at the described concentration for 5 minutes. Cells were then harvested and homogenized in ice-cold RIPA buffer with 1 mM sodium orthovanadate (Iaccarino et al, Proc. Natl. Acad. Sci. USA 96:3945-3950 (1999b)). MAPK activity as assessed by phosphorylated protein levels was performed by activity assays as previously described (Iaccarino et al, Proc. Natl. Acad. Sci. USA 96:3945-3950 (1999b)). Protein immunoblotting for the activated phosphorylated forms of ERK1/2 and JNK1/3 (New England Biolabs) was normalized to total MAPK levels using antibodies specific to total ERK1/2 and JNK1 (Santa Cruz Biotechnologies, California).
As a second assay to measure βAR mediated signaling in VSM cells from GRK2 transgenic and NLC mice, we investigated MAPK activity after βAR stimulation. Two MAPKs were studied, extracellular-regulated kinase (ERK1/2 or p42/p44 MAPKs) and c-jun kinase (JNK). FIG. 7C is a representative autoradiograph of the ability of immunoprecipitated ERK1/2 or JNK1/3 to phosphorylates their in vitro substrates myelin basic protein (MBP) or GST-c-jun, respectively, after the addition of different doses of isoproterenol to aortic VSM cells from NLC and SM22α-GRK2-25 mice. […] This was also the case for the activity of JNK1/3 and its ability to phosphorylate GST-c-jun (FIG. 7C). […]

[2] = Blood pressure responses in anesthetized mice to infused GPCR agonists; type: in vivo; conditions: for decrease from resting MAP: 0.156 μg/kg isoproterenol, n=3; for change from resting diastolic pressure: 0.625 μg/kg isoproterenol; for diastolic pressure response: 10 μg/kg isoproterenol; for MAP response (increase over resting MAP): 8 μg/kg phenylephrine; for increase over resting MAP: 1 μg/kg angiotensin II
Protocol: In order to begin to understand the mechanisms involved in the GRK2 overexpression-induced hypertension and the receptors that are desensitized, blood pressure responses were measured in anesthetized mice following angiotensin II (FIG. 5A), phenylephrine (FIG. 5B) or isoproterenol (FIG. 5C) infusion. The response to 1 μg/kg angiotensin II was attenuated (NLC 91+12%, n=9 versus BK25 43+8% increase over resting MAP, n=4, p=0.02), as were responses to 8 μg/kg phenylephrine (NLC: 44±11% versus 4±5%, n=4, p=0.04). MAP responses to isoproterenol were not different in GRK2 overexpressing mice as compared with NLC. However, isoproterenol has a significant effect on heart rate that could affect MAP. Therefore, diastolic pressure was examined as a rough estimate of peripheral resistance.
In vivo Physiology: Mice were anesthetized with ketamine (100 mg/kg body weight) and xylazine (5 mg/kg body weight). Subsequently, a flexible plastic catheter (flame-stretched PE50 tubing) was placed in the left carotid artery to monitor arterial pressure and tunneled subcutaneously to exit at the nape of the neck. The catheter was then flushed with 100 μL of heparinized phosphate-buffered saline (PBS) (30 U/mL), sealed and attached to the skin between the scapulae. Twenty-four hours later, blood pressure measurements are recorded from awake, unrestrained mice. Intra-arterial blood pressure is recorded continuously through the carotid catheter using PowerLab (ADInstruments, Mountainview, Calif.) data acquisition and software. In both anesthetized and awake animals, systolic (SBP) and diastolic blood pressure (DBP), and heart rate were measured. Mean arterial pressure (MAP) was calculated as DBP+⅓(SBP- DBP). The recordings from animals in each experimental group were then integrated and averaged. To analyze acute blood pressure responses, a second catheter was placed in the jugular vein to infuse agonists. Immediately following an equilibration period, mice received a bolus injection at 2-5 min intervals.

aortic VSM cells [3] = assay: Intracellular cAMP accumulation (adenylyl cyclase activity) in cultured aortic VSM cells; type: cell-based; conditions: aortic VSM cells from SM22α-GRK2-25 mice, compared with NLC cells
Protocol: Cell Culture: Primary cultures of VSM from thoracic aortas and vena cava were obtained and cultured as described (Chen et al, J. Biol. Chem. 270:30980-30988 (1995)). To determine adenylyl cyclase activity, cultured cells were grown to four days post-confluence. Cells were then labeled overnight in 3.0 μCi/mL [^3H]adenine (DuPont/NEN) in medium 199 and then preincubated in medium 199 with 10 mM Hepes and 1 mM 3-isobutyl-1-methylxanthine (IBMX) for 30 min. Cells were then stimulated with the appropriate concentration of isoproterenol or […] for 15 minutes. Following incubation, cAMP was determined by anion exchange chromatography and a percent incorporation of the total [^3H] uptake was calculated. To determine if enhanced expression and activity of GRK2 seen in cultured VSM cells from SM22α-GRK2 mice could exert an effect on signaling, intracellular cAMP accumulation in cultured aortic VSM cells in response to the βAR agonist isoproterenol was examined.

[4] = system: thoracic aorta ring segments; assay: Responses of isolated thoracic aorta ring segments to GPCR agonists; design: species or system mice
Protocol: In Vitro Physiology: Aorta were dissected and cut into 2.5 mm rings. Rings were then placed in a 37° C. chamber (Kent Scientific) containing Krebs-Hensileit buffer and bubbled with 95% O2/5% CO2. Two stainless steel wires were placed through each ring and one wire is attached to a fixed end. The other was attached to a force transducer and contraction is measured by force displacement (PowerLab, ADInstruments, Mountainview, Calif.). Responses to various agonists were tested in the presence and absence (mechanically scraped using a thin wire or chemical inhibition of nitric oxide synthase using 100 μM L-NAME) of endothelial cells. For isoproterenol responses, pretension was established at 60% of the maximum phenylephrine response (3×10^−7M PE).
Pharmacology: To analyze the effect of VSM GRK2 overexpression independent of autonomic influences on the peripheral vasculature, responses of isolated thoracic aorta ring segments to the GPCR agonists isoproterenol (βAR) and phenylephrine ([…]) were examined. Endothelial cell presence was first verified by relaxation responses to 10^−5M acetylcholine. […] Accordingly, pretension for the βAR studies was established using 3×10^−7M phenylephrine, which corresponded to 60% maximum phenylephrine stimulation in both NLC and transgenic mice. […]

Molecule: CC(C)NCC(O)c1ccc(O)c(O)c1 (stereo not shown) [isoproterenol]
- induction of phosphorylation status of ERK1/2 (aortic VSM cells [1]; NLC VSM cells): robust increase
- induction of phosphorylation status of ERK1/2 (activation) (aortic VSM cells [1]; SM22α-GRK2-25 VSM cells): virtually abolished
- decrease from resting MAP ([2]; anesthetized NLC mice): −30±2.8 mmHg
- decrease from resting MAP ([2]; anesthetized SM22α-GRK2 mice): −4.7±3.2 mmHg
- change from resting diastolic pressure ([2]; anesthetized BK25 mice, n=4): −11±3%
- change from resting diastolic pressure ([2]; anesthetized NLC mice, n=9): −39±8%
- diastolic pressure response ([2]; anesthetized BK25 mice, n=4): −11±3%
- diastolic pressure response ([2]; anesthetized WT mice, n=9): −39±8%
- MAP responses, GRK2 overexpressing mice compared with NLC ([2]; anesthetized mice, cumulative doses of isoproterenol): not different
- cAMP generation (aortic VSM cells [3]): minimal increase

Molecule: CNC[C@H](O)c1cccc(O)c1 [phenylephrine]
- MAP response (increase over resting MAP) ([2]; anesthetized GRK2 overexpressing (BK25) mice, n=4): 4±5%
- MAP response (increase over resting MAP) ([2]; anesthetized NLC (WT) mice): 44±11%
- fraction of maximum phenylephrine stimulation (pretension) ([4]; 3×10^−7M phenylephrine, aorta rings of both NLC and transgenic mice): 60%
- constriction of aorta rings, NLC compared with SM22α-GRK2-25 mice ([4]; cumulative dose response): similar

Molecule: angiotensin II [GPCR agonist infused to raise blood pressure]
- increase over resting MAP ([2]; anesthetized BK25 (GRK2 overexpressing) mice, n=4): 43+8% and 43±8%
- increase over resting MAP ([2]; anesthetized NLC (WT) mice, n=9): 91+12% and 91±12%
